From ChEMBL document CHEMBL2029261 (Bioorg Med Chem Lett, 2012)
Activity calls are given as the source filed them. The calls are words filed in the database; no cut-off is given here.

Columns and labels:
[1] = Apparent binding affinity to amyloid beta (1 to 40) aggregates; details: read-out: Kd(app)
[2] = Binding affinity to amyloid beta (1 to 40) aggregates assessed as change in fluorescence intensity at 10 uM relative to control
Mus musculus [3] = species: Mus musculus; assay: Binding affinity to amyloid beta plaque in mouse brain tissue by thioflavin staining-based fluorescence analysis
Mus musculus [4] = species: Mus musculus; assay: Binding affinity to amyloid beta plaque in APP/PS1 transgenic mouse brain tissue by thioflavin staining-based fluorescence analysis
[5] = target: Amyloid-beta precursor protein (Homo sapiens) (UniProt P05067); assay: Binding affinity to unlabeled amyloid beta (1 to 42) expressed in human SH-SY5Y cells at 10 uM after 10 mins thioflavin staining-based by fluorescence microscopic analysis
Chain of Amyloid-beta precursor protein (Homo sapiens) (P05067 whole entry): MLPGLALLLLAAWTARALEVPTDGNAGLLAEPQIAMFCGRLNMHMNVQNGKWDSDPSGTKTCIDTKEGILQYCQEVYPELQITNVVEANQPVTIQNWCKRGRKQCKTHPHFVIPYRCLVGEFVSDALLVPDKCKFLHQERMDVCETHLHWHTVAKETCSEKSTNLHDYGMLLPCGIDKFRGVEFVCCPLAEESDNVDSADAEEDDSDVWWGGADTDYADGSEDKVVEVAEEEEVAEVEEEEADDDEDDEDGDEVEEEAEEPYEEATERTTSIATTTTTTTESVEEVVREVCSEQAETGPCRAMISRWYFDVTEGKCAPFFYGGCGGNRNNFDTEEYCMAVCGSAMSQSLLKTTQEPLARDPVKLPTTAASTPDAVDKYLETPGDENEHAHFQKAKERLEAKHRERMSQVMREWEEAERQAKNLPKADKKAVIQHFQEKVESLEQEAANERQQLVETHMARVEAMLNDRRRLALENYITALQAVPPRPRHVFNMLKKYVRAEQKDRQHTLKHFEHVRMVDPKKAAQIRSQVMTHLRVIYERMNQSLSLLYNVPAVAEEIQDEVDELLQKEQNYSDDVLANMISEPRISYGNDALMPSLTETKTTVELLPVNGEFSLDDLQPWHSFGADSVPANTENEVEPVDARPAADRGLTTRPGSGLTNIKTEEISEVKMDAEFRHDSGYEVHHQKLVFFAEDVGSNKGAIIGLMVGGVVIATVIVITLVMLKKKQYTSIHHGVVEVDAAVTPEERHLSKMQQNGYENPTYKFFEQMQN

Row | Structure (SMILES) | Kd [1] | fold change (FC) [2] | further results
1 | COc1ccc(/C=C/n2ncc(Cl)c(Cl)c2=O)c(OC)c1OC | 4.24 µM | 26.8 | 
2 | COc1cc(/C=C/n2ncc(Cl)c(Cl)c2=O)cc(OC)c1 |  | 5.37 | 
3 | COc1ccc(/C=C/n2ncc(Cl)c(Cl)c2=O)cc1OC |  | 3.52 | 
4 | O=c1c(Cl)c(Cl)cnn1/C=C/c1ccc(I)cc1 |  | 5.26 | 
5 | O=c1c(Cl)c(Cl)cnn1/C=C/c1ccccc1[N+](=O)[O-] |  | 4.12 | 
6 | O=c1c(Cl)c(Cl)cnn1/C=C/c1ccc(-c2ccccc2)cc1 |  | 1.92 | 
7 | COc1ccccc1/C=C/n1ncc(Cl)c(Cl)c1=O |  | 8.24 | 
8 | O=c1c(Cl)c(Cl)cnn1/C=C/c1ccc(Br)cc1 |  | 2.12 | 
9 | COc1ccc(OC)c(/C=C/n2ncc(Cl)c(Cl)c2=O)c1 |  | 3.42 | 
10 | COC(=O)c1ccc(/C=C/n2ncc(Cl)c(Cl)c2=O)cc1 |  | 2.07 | 
11 | COc1ccc(/C=C/n2ncc(Cl)c(Cl)c2=O)cc1 | 2.57 µM | 19.8 | 
12 | Cc1ccc2c(c1)sc(-c1ccc(N(C)C)cc1)[n+]2C |  |  | Activity (Mus musculus [3]): inactive
13 | O=c1c(Cl)c(Cl)cnn1/C=C/c1ccccc1 |  | 4.72 | 
14 | O=c1c(Cl)c(Cl)cnn1/C=C/c1ccc(F)cc1 |  | 5.93 | 
15 | O=c1c(Cl)c(Cl)cnn1/C=C/c1ccc([N+](=O)[O-])cc1 |  | 2.24 | 
16 | N#Cc1ccc(/C=C/n2ncc(Cl)c(Cl)c2=O)cc1 |  | 2.94 | 
17 | O=c1c(Cl)c(Cl)cnn1/C=C/c1ccc(/C=C\c2ccccc2)cc1 |  | 2.04 | 
18 | COc1cc(OC)c(/C=C/n2ncc(Cl)c(Cl)c2=O)c(OC)c1 | 17.6 µM | 11.7 | 
19 | COc1cccc(/C=C/n2ncc(Cl)c(Cl)c2=O)c1 | 3.48 µM | 11.1 | 
20 | COc1ccc(/C=C/n2ncc(Cl)c(Cl)c2=O)c(OC)c1 | 5.03 µM | 11.5 | 
21 | COc1cccc(/C=C/n2ncc(Cl)c(Cl)c2=O)c1OC | 8.52 µM | 15.3 | 
22 | Nc1ccc(/C=C/n2ncc(Cl)c(Cl)c2=O)cc1 | 2.95 µM | 12.2 | 
23 | O=c1c(Cl)c(Cl)cnn1/C=C/c1cccc([N+](=O)[O-])c1 |  | 2.12 | 
24 | CN(C)c1ccc(/C=C/n2ncc(Cl)c(Cl)c2=O)cc1 | 1.84 µM | 40.8 | Activity (Mus musculus [4]): Active; Activity (Mus musculus [3]): inactive; Activity [5]: Active
25 | COc1cc(OC)c(OC)cc1/C=C/n1ncc(Cl)c(Cl)c1=O |  | 3.95 | 
26 | O=c1c(Cl)c(Cl)cnn1/C=C/c1ccc(Cl)cc1 |  | 3.03 | 
27 | COc1cc(/C=C/n2ncc(Cl)c(Cl)c2=O)cc(OC)c1OC | 4.14 µM |  | FC [2]: 26.1
28 | Cc1ccc(/C=C/n2ncc(Cl)c(Cl)c2=O)cc1 |  | 2.81 | 
29 | COc1cccc(OC)c1/C=C/n1ncc(Cl)c(Cl)c1=O |  | 4.53 | 
